# Assay results published in patent publication US7678390B2, “Carbon monoxide as a biomarker and therapeutic agent” (priority 1999, dated 2010).
# Assays:
# RAW 264.7 macrophages = assay: cGMP radioimmunoassay in macrophages; type: cell-based, mouse; conditions: 2 h
# Description: Nitrate/Nitrite Analysis. Both analytes were measured in the cell culture media which had been ultrafiltered to remove all proteins greater than 10,000 molecular weight. All samples were than analyzed according to the assay kit protocols. (R & D, Minneapolis, Minn.). cGMP Radioimmunoassay (RIA) in macrophages. Macrophages or vascular smooth muscle cells were exposed to CO (250 ppm) or air. 20 min before the end of the exposure 1 mM of 3-isobutyl-1-methylxanthine (IBMX) was added to the cells to prevent phosphodiesterase degradation of cGMP. After 2 h of exposure, cells were removed from the exposure chamber, rinsed with PBS and then 0.5 ml of 75% EtOH was added to the plate and cells were scraped and disrupted via sonication for 5 s. Samples were then centrifuged at 2000 g for 10 min. Supernatants were transferred to fresh tubes and evaporated to dryness. cGMP concentration in the cell extracts was determined by radioimmunoassay (NEN, Boston, Mass.) according to manufacturer's instructions. cGMP was normalized to protein concentration as determined by Bradford assay. Statistical Analysis. Data are expressed as the mean±SE. Differences in measured variables between experimental and control group were assessed using Student's t tests. Statistical calculations were performed on a Macintosh personal computer using the Statview II Statistical Package (Abacus Concepts, Berkeley, Calif.). […]
# MKK3/MKK6 = assay: LPS-induced activation of MKK3/MKK6 in RAW 264.7 cells; type: cell-based, mouse; conditions: LPS in the presence of CO (data not shown)
# From the text: Animals. Male C57BL/6 and IL-10 (−/−) mice were purchased from Jackson Laboratory (Bar Harbor, Me.), and allowed to acclimate for one week with rodent chow and water ad libitum. The MKK (−/−) mice were generated as previously described [Lu, et al., EMBO J. 18:1845-1857 (1999)]. Wild type littermates were used as controls. All animals were housed in accordance with guidelines from the American Association for Laboratory Animal Care and Research Protocols and were approved by the Animal Care and Use Committee of Yale University School of Medicine. Reagents. All reagents were purchased from Sigma Chemical Co. (St Louis, Mo.) unless specified otherwise. Plasmid Construct. Plasmid pSFFV/HO-1 was constructed by insertion of the rat HO-1 cDNA [Shibahara, et al., Proc. Natl. Acad. Sci. USA. 82: 7865-7869 (1985)] downstream of the Friend spleen focus-forming virus 5′ long-terminal repeat in the mammalian expression vector pSFFV/neo [Fuhlbrigge, et al, Proc. Natl. Acad. Sci. USA. 85: 5649-5653 (1988)] (kindly provided by Stanley Korsmeyer). Transfection. […] Gas samples were taken by the analyzer through a port in the top of the chambers at a rate of 1 L/min and analyzed by electrochemical detection, with a sensitivity of 10-600 ppm. Concentration levels were measured hourly and there were no fluctuations in the CO concentrations once the chamber had equilibrated (approximately 5 min). […]
# [1] = tested on: mice given LPS (wild type); assay: LPS-induced serum cytokines in mice exposed to CO; type: in vivo, mouse
# From the text: Animals. Male C57BL/6 and IL-10 (−/−) mice were purchased from Jackson Laboratory (Bar Harbor, Me.), and allowed to acclimate for one week with rodent chow and water ad libitum. The MKK (−/−) mice were generated as previously described [Lu, et al., EMBO J. 18:1845-1857 (1999)]. Wild type littermates were used as controls. All animals were housed in accordance with guidelines from the American Association for Laboratory Animal Care and Research Protocols and were approved by the Animal Care and Use Committee of Yale University School of Medicine. Reagents. All reagents were purchased from Sigma Chemical Co. (St Louis, Mo.) unless specified otherwise. Plasmid Construct. Plasmid pSFFV/HO-1 was constructed by insertion of the rat HO-1 cDNA [Shibahara, et al., Proc. Natl. Acad. Sci. USA. 82: 7865-7869 (1985)] downstream of the Friend spleen focus-forming virus 5′ long-terminal repeat in the mammalian expression vector pSFFV/neo [Fuhlbrigge, et al, Proc. Natl. Acad. Sci. USA. 85: 5649-5653 (1988)] (kindly provided by Stanley Korsmeyer). Transfection. Stable transfections were carried out by the calcium phosphate precipitation technique as previously described [Alam, J., J. Biol. Chem. 269: 25049-25056 (1994)]. Briefly, RAW cells were plated (1×10^6/10 cm plate) and 16 h later, transfected with […] of pSFFV/neo or pSFFV/HO-1. Cells were exposed to the DNA-CaPO4 precipitate for 6 h, shocked by a 1 min treatment with glycerol in phosphate-buffered saline and cultured for an additional 24 h in complete medium before addition of G418. Transfectants were selected over a 3-week period in the presence of G418 (up to […]) and individual clones were isolated by limited dilution. Cell Culture Experimentation. RAW 264.7 mouse peritoneal macrophages were purchased from […] (Rockville, Md.) and primary culture of rat pulmonary vascular smooth muscle cells were harvested from male Sprague Dawley rats (250-300 g) as previously described [Gunther, et al., J. Cell. Biol. 92: 289-298 (1982).]. Both cell types were grown in DMEM containing 10% FBS and gentamicin ([…]) in a humidified atmosphere of 5% CO2/balanced air or 250 ppm CO/5% CO2/balanced air. After a 2 h pretreatment with either CO or air, LPS ([…]) or sterile saline was added to the culture media and the culture plates were returned to the chamber(s). At various time points, cell plates were removed from the chamber to collect media and/or cells for Western analysis. CO Exposures. Mice or macrophages were exposed to compressed air or 250 ppm CO. For cell culture experiments, 5% CO2 was also present for buffering requirements. CO at a concentration of 1% (10,000 ppm) in compressed air was mixed with compressed air with or without CO2 in a stainless steel mixing cylinder before delivery into the exposure chamber. Flow into the 3.70-ft^2 plexiglass animal chamber was maintained at 12 L/min and into the 1.2 ft^2 cell culture chamber at a flow of 2 L/min. The cell culture chamber was humidified and maintained at 37° C. A CO analyzer (Interscan, Chatsworth, Calif.) was used to measure CO levels continuously in the chambers. Gas samples were taken by the analyzer through a port in the top of the chambers at a rate of 1 L/min and analyzed by electrochemical detection, with a sensitivity of 10-600 ppm. Concentration levels were measured hourly and there were no fluctuations in the CO concentrations once the chamber had equilibrated (approximately 5 min). Animal Experimentation. Mice were prebled from the retroorbital sinus (0.25 ml) and then exposed to CO (250 ppm) or room air for 1 h prior to administration of LPS (1 mg/kg, i.p.), E. coli serotype O127:B8. 1 and 16 h thereafter, they were removed from the exposure apparatus individually and a blood sample was obtained via the retroorbital sinus. After the blood collection, the mice were immediately returned to the exposure chamber. […]
smiles,measurement,setting,value
"[C-]#[O+] [CO, carbon monoxide]",increase in cGMP,RAW 264.7 macrophages; 250 ppm CO,no significant increase
same,cGMP,RAW 264.7 macrophages; CO 250 ppm,3.95 ± 0.6 pmol/mg protein
same,MKK3/MKK6 activation by LPS,MKK3/MKK6,augmentation
same,TNF-α or IL-10 production without LPS,"[1]; CO (250 ppm) alone, MKK3(−/−) or wild type(+/+) mice",no effect
same,IL-10 in response to LPS in vivo,"[1]; LPS 1 mg/kg, mice, CO 250 ppm",augmentation
same,EC50 for attenuation of LPS-induced TNF-α production in vivo,"[1]; LPS 1 mg/kg, mice, dose-dependent",69.9 ppm
same,LPS-induced TNF-α production in vivo,"[1]; LPS 1 mg/kg, mice, in the presence of CO",significant attenuation
same,inhibition at 250 ppm,"[1]; Mus musculus, wild type controls, LPS, CO 250 ppm, 1 h, read-out: inhibition of serum TNF-α levels",73%
same,LPS-induced serum TNF-α production,"[1]; wild type(+/+) littermates, LPS 1 mg/kg, 250 ppm CO",attenuated levels
same,LPS-induced IL-10 levels,"[1]; wild type(+/+) mice, LPS 1 mg/kg, 250 ppm CO",augmented
